Experimental data taken from article PMC3062577, “Purification and biochemical properties of a cytochrome bc complex from the aerobic hyperthermophilic archaeon Aeropyrum pernix” (BMC Microbiology, 2011).

Experiments:
cytochrome oa3 oxidase = biological target: T1, cytochrome oa3 oxidase (Aeropyrum pernix, UniProt Q9YDX6+Q9YDX7); assay: spectrophotometric TMPD oxidation at […] nm; format: biochemical; details: 25 mM TMPD, 0.1 M NaCl, 50 mM NaPi pH 6.5, 40 °C; without added cytochrome c553
T1 construct: gene aoxB; native, partially purified from A. pernix K1 membranes in DDM; 140 kDa on BN-PAGE; bands 74, 40 and 25 kDa (25 kDa = cytochrome c553); assigned to AoxA/AoxB by size only; aoxABC = APE_0792.1, APE_0793.1, APE_0795.1

[1] = biological target: T2, cytochrome c553 complex (cytochrome bc complex) (Aeropyrum pernix, UniProt Q9YB72+Q9YB73+Q9YB78); assay: spectrophotometric menaquinol oxidation / yeast cytochrome c reduction; format: biochemical; details: acceptor yeast cytochrome c; pH 7.0, 40 °C, 0.2 mM menaquinol-1 (menaquinol oxidase assay); 0.1% DDM
T2 construct: gene soxC; native complex purified from A. pernix K1 membranes in DDM; 80 kDa on BN-PAGE; subunits 40, 30 and 25 kDa; only the 25-kDa subunit identified by mass (21,344)
T2 sequence (Q9YB72 1-571): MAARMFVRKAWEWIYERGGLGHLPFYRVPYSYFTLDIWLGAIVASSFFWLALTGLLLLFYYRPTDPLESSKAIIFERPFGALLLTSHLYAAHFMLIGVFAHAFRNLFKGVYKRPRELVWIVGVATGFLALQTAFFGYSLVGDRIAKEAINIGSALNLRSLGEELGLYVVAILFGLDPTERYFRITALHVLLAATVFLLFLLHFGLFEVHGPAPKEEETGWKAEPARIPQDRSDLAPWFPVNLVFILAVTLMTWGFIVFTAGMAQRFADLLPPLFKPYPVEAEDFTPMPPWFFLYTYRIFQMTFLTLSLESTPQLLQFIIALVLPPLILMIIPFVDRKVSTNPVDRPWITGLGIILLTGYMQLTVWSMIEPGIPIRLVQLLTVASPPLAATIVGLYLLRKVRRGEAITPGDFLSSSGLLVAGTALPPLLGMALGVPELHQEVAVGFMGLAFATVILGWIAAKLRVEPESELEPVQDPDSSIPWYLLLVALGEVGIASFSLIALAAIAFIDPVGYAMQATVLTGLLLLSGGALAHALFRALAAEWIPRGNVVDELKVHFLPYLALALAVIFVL
T2 sequence (Q9YB73 34-265): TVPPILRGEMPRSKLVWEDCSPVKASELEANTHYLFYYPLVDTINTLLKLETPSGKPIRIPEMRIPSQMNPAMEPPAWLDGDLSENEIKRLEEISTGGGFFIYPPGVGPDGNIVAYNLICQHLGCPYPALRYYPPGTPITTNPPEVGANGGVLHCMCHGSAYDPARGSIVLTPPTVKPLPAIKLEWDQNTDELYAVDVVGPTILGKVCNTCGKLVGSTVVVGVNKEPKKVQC
T2 sequence (Q9YB78 1-190): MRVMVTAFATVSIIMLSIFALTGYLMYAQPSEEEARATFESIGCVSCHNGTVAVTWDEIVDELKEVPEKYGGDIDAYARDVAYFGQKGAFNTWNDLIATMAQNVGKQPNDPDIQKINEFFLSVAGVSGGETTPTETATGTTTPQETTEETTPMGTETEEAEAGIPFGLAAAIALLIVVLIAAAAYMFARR

T1 sequence (Q9YDX6 whole entry): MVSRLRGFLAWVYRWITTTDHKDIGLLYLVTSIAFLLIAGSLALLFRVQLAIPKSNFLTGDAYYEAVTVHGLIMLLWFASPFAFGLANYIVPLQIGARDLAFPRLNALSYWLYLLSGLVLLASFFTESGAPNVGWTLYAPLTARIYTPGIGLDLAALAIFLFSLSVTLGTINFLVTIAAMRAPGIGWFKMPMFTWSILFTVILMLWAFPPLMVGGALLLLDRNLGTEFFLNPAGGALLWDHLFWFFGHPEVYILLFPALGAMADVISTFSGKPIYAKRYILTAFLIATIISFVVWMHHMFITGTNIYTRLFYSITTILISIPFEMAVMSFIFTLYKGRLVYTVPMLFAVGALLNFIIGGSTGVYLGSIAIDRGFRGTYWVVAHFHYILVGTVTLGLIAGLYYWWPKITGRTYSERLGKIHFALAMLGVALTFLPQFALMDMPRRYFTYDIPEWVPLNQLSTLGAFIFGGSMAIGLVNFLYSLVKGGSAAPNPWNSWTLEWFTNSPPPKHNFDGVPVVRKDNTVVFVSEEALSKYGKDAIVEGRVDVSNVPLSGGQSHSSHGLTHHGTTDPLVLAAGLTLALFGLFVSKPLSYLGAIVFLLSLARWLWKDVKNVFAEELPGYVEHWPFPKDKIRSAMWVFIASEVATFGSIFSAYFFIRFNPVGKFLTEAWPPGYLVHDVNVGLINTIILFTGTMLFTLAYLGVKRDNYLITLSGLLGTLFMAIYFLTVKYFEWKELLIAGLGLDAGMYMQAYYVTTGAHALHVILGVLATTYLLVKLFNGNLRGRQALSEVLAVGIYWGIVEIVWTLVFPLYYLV
T1 sequence (Q9YDX7 whole entry): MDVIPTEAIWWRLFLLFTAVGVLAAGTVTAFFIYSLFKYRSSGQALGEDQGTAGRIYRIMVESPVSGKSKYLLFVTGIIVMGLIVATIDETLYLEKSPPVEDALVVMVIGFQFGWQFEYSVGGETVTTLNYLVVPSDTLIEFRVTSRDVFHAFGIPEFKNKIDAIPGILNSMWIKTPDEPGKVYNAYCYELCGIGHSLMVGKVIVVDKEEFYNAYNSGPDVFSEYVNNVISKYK
T1 sequence (Q9YDX4 whole entry partner): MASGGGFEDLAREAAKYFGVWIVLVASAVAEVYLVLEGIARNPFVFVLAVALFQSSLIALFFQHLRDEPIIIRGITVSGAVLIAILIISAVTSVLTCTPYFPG

SMILES | spectrophotometric TMPD oxidation at 562 nm (cytochrome oa3 oxidase) | spectrophotometric menaquinol oxidation / yeast cytochrome c reduction [1]
CN(C)c1ccc(N(C)C)cc1 [TMPD, N,N,N',N'-tetramethyl-p-phenylenediamine] | The isolated cytochrome oa3 oxidase had TMPD and yeast cytochrome c oxidation activity | –
CC(C)=CCc1c(C)c(O)c2ccccc2c1O [menaquinol-1] | – | cytochrome c553 oxidized menaquinol and reduced yeast cytochrome c
